Patent publication US20030199671A1, “Binding molecules for Fc-region polypeptides” (priority 2001, published 2003)
Positions of bridges follow the written chain, without caps; N, C: chain ends. Residues, ends and D or L forms follow the SMILES beside them. *: point of attachment. 5FAM = O=C1OC2(c3ccc(O)cc3Oc3cc(O)ccc32)c2ccc(C(=O)*)cc21

What was measured:
human plasma IgG1 = molecular target: T1, human plasma IgG1 (Homo sapiens, UniProt P01857); assay: Fluorescence anisotropy binding, fluorescein-labeled peptide; details: 2 nM labeled peptide; PBS with 0.01% Tween 20
T1 construct: the individual human plasma IgG isoforms: IgG1, IgG2, IgG3, or IgG4; purchased Calbiochem; host or cells: human plasma
Experimental: (§1) All measurements were performed in 384 well microplates with 20 nM fluorescein-labeled peptide and various concentrations of the IgG isoform in a volume of between 10 and 20 μl using a Tecan Polarion fluorescence polarization plate reader. All binding buffers included 0.01% (v/v) Tween 20 to prevent peptide adsorption to the microplate. The binding mixture was equilibrated for 10 minutes in the microplate at 30° C. prior to performing the measurement.
(§2) Peptides were synthesized, fluorescein-labeled and HPLC purified as described above. Binding studies were performed using either a mixture of human plasma IgG isoforms (the Fc protein) or the individual human plasma IgG isoforms: IgG1, IgG2, IgG3, or IgG4.
(§3) Measurements were performed in 384-well microplates with 2 nM fluorescein-labeled peptide and a varied concentration of the IgG isoform target in a volume of 10 μl using a Tecan Polarion fluorescence polarization plate reader. The Fc binding buffer was 50 mM Tris-HCl, 200 mM NaCl, pH 8.0, 0.01% Tween 20. The IgG binding buffer was PBS with 0.01% Tween 20. The binding mixtures were equilibrated for 10 minutes in the microplate at 30° C. prior to performing the measurements.

human plasma IgG2 = molecular target: T2, human plasma IgG2 (Homo sapiens, UniProt P01859); assay: as above; details: 2 nM labeled peptide; PBS with 0.01% Tween 20
T2 construct: the individual human plasma IgG isoforms: IgG1, IgG2, IgG3, or IgG4; purchased Calbiochem; host or cells: human plasma
Experimental: as §1, §2, §3

[1] = molecular target: Fc (mixture of human plasma IgG isoforms); assay: as above; details: 2 nM labeled peptide; 50 mM Tris-HCl, 200 mM NaCl, pH 8.0, 0.01% Tween 20
Experimental: (§4) Peptides were synthesized by BACHEM Bioscience, Inc., (King of Prussia, Pa.), fluorescein labeled and purified by HPLC. Binding studies were performed using either a mixture of human plasma IgG isoforms (the Fc target) or the individual human plasma IgG isoforms: IgG1, IgG2, IgG3, or IgG4. All Fc target proteins were obtained from Calbiochem.
as §1, §2, §3

human plasma IgG4 = molecular target: T3, human plasma IgG4 (Homo sapiens, UniProt P01861); assay: as above; details: 2 nM labeled peptide; PBS with 0.01% Tween 20
T3 construct: the individual human plasma IgG isoforms: IgG1, IgG2, IgG3, or IgG4; purchased Calbiochem; host or cells: human plasma
Experimental: as §4, §1, §2, §3

human IgG1 = molecular target: T4, human IgG1 (Homo sapiens, UniProt P01857); type: binding; details: peptide immobilized on NHS activated sepharose 4 fast flow, target ligand density 2.0 μmole/ml; batch filterplate; hIgG1
T4 construct: all human subtypes derived from myeloma patients; purchased Calbiochem 400120; host or cells: myeloma patients
In short: (§5)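 Static binding, peptide resin + IgG, 1-1.5 h RT with shaking, PBST pH 7.2 or TBST pH 7.5. Flow-through read at A280 vs buffer blank; % bound = control minus unbound. Elution at pH 8.5 bicarbonate and/or pH 4.0 citrate, 30-60 min.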

human IgG2 = molecular target: T5, human IgG2 (Homo sapiens, UniProt P01859); type: binding; details: peptide immobilized on NHS activated sepharose 4 fast flow, target ligand density 2.0 μmole/ml; batch filterplate; hIgG2
T5 construct: all human subtypes derived from myeloma patients; purchased Calbiochem 400122; host or cells: myeloma patients
In short: (§6)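 Read-out is A280 of unbound IgG (1.4 mg/ml extinction coefficient), with percent bound derived against non-filtered or negative controls. Targets were incubated with immobilized peptides in PBST or TBST for 1-1.5 h at room temperature. Hydrolyzed Sepharose and immobilized Protein A serve as negative and positive controls.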

human IgG = type: binding; details: batch filterplate; for Batch Binding (% Capture of Total Load) hIgG: peptide immobilized on NHS activated sepharose 4 fast flow, target ligand density 2.0 μmole/ml
In short: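 Unfractionated IgG in PBST (10 mM phosphate, 150 mM NaCl, 0.01% Tween 20, pH 7.2) or TBST (50 mM Tris, pH 7.5) was batch-incubated with immobilized peptide resin for 1-1.5 h at room temperature. Unbound IgG was quantitated by A280, and percent bound was taken by subtraction from control values.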

[2] = Solubility in aqueous coupling buffer; type: physicochemical; details: aqueous coupling conditions
Description: The varying degree of binding may be due to, in part, to lower coupling efficiencies as a result of varying degrees of solubility in aqueous coupling conditions. […] However, coupling efficiencies of all nine DX253 variants monitored by rp-HPLC was high and averaged>85%. Actual ligand densities were not determined.

IgG3 = IgG3 (Homo sapiens, UniProt P01860); type: binding; set-up: all human subtypes derived from myeloma patients; purchased Calbiochem 400124; host or cells: myeloma patients; details: peptide immobilized on NHS activated sepharose 4 fast flow, target ligand density 2.0 μmole/ml; batch filterplate; hIgG3
In short: as §5

IgG4 = IgG4 (Homo sapiens, UniProt P01861); type: binding; set-up: all human subtypes derived from myeloma patients; purchased Calbiochem 400126; host or cells: myeloma patients; details: peptide immobilized on NHS activated sepharose 4 fast flow, target ligand density 2.0 μmole/ml; batch filterplate; hIgG4
In short: as §6

[3] = cited from earlier work

T4 sequence (P01857 1-330 isoform P01857-1): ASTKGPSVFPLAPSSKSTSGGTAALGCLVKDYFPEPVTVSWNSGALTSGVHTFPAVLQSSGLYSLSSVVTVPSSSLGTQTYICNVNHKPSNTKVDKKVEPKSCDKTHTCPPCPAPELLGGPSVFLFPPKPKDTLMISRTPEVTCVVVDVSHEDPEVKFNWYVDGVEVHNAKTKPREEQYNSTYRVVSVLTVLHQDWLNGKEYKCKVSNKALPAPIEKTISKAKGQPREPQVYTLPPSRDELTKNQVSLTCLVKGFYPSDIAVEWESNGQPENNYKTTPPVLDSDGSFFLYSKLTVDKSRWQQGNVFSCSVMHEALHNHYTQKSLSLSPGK
T5 sequence (P01859 1-326 isoform P01859-1): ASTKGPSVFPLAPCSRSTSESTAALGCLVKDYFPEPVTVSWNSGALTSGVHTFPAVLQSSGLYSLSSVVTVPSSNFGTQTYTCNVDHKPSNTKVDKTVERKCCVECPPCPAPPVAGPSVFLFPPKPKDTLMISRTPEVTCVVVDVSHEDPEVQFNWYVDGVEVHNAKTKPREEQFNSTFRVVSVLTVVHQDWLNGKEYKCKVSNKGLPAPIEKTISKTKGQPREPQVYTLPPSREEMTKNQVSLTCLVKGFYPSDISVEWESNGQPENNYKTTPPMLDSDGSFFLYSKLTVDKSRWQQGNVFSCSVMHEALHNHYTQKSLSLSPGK
IgG3, sequence (P01860 1-377 isoform P01860-1): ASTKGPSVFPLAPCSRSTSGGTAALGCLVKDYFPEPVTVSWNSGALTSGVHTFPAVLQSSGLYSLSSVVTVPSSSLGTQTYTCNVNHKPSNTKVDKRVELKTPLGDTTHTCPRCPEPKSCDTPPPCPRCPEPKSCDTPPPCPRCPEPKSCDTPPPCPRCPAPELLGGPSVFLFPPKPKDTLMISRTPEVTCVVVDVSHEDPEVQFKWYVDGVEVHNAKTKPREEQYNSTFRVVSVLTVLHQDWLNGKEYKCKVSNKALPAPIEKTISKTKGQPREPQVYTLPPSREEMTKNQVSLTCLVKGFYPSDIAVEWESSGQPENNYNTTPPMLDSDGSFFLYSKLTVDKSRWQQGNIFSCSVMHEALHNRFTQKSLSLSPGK
IgG4, sequence (P01861 1-327 isoform P01861-1): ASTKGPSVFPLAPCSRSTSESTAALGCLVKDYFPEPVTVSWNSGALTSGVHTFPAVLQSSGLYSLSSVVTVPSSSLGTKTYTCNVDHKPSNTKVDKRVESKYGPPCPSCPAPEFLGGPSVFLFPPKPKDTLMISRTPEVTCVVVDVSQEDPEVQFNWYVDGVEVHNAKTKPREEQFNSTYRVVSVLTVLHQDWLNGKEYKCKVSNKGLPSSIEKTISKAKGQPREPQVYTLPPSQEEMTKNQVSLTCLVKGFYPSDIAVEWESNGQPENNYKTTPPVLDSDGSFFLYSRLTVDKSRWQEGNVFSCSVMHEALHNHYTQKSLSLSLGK
T1 sequence (P01857 1-330 isoform P01857-1): as the sequence (P01857 1-330 isoform P01857-1) above
T2 sequence (P01859 1-326 isoform P01859-1): as the sequence (P01859 1-326 isoform P01859-1) above
T3 sequence (P01861 1-327 isoform P01861-1): as the sequence (P01861 1-327 isoform P01861-1) above

SMILES	KD (μM) IgG1 (human plasma IgG1)	KD (μM) IgG2 (human plasma IgG2)	KD (μM) Fc [1]	KD (μM) IgG4 (human plasma IgG4)	Batch Binding (% Capture of Total Load) hIgG1 (human IgG1) [%]	Batch Binding (% Capture of Total Load) hIgG2 (human IgG2) [%]	Batch Binding (% Capture of Total Load) hIgG (human IgG) [%]	Solubility in aqueous coupling buffer [2]	Batch Binding (% Capture of Total Load) hIgG3 (IgG3) [%]	Batch Binding (% Capture of Total Load) hIgG4 (IgG4) [%]	Binding properties / profile relative to parent peptide (human IgG; human IgG and subtypes)	pKa of the carboxylic acid group [3]
CC(=O)N[C@@H](C)C(=O)NCC(=O)N[C@@H](CCCCN)C(=O)N[C@@H](Cc1ccc(O)cc1)C(=O)N[C@@H](Cc1c[nH]c2ccccc12)C(=O)N[C@H]1CSSC[C@@H](C(=O)N[C@@H](CCCCN)C(=O)N[C@H](C(=O)NCC(=O)N[C@H](C(=O)N2CCC[C@H]2C(=O)NCC(=O)N2CCC[C@H]2C(=O)N[C@@H](CCC(=O)O)C(=O)NCC(=O)NCC(=O)NCC(=O)N[C@@H](CCCCNC(=O)c2ccc3c(c2)C(=O)OC32c3ccc(O)cc3Oc3cc(O)ccc32)C(N)=O)[C@@H](C)O)[C@@H](C)O)NC(=O)[C@H](CCC(N)=O)NC(=O)[C@H](CC(C)C)NC(=O)CNC(=O)[C@H](Cc2c[nH]c3ccccc23)NC(=O)[C@H](Cc2ccccc2)NC(=O)[C@H](CO)NC1=O [DX300] (Ac-AGKYWCSFWGLQCKTGTPGPEGGGK(5FAM)-NH2; disulfide 6-13)	No binding	No binding	No binding	No binding	–	–	–	–	–	–	–	–
CC(=O)N[C@@H](CO)C(=O)N[C@@H](CCCNC(=N)N)C(=O)N[C@@H](C)C(=O)N[C@H]1CSSC[C@@H](C(=O)N[C@@H](C)C(=O)NCC(=O)N[C@@H](Cc2c[nH]cn2)C(=O)N[C@@H](CCC(=O)O)C(=O)N2CCC[C@H]2C(=O)NCC(=O)N2CCC[C@H]2C(=O)N[C@@H](CCC(=O)O)C(=O)NCC(=O)NCC(=O)NCC(=O)N[C@@H](CCCCN)C(N)=O)NC(=O)[C@H](Cc2c[nH]c3ccccc23)NC(=O)[C@H](C(C)C)NC(=O)[C@H](CC(C)C)NC(=O)[C@H](C)NC(=O)CNC(=O)[C@H](CO)NC(=O)[C@H](Cc2c[nH]c3ccccc23)NC(=O)[C@H](CC(=O)O)NC(=O)[C@H](CCCNC(=N)N)NC(=O)[C@H](CO)NC1=O [DX1139] (Ac-SRACSRDWSGALVWCAGHEPGPEGGGK-NH2; disulfide 4-15)	–	–	–	–	43	34	36	not fully soluble	0	22	–	–
CC(=O)N[C@@H](CCCNC(=N)N)C(=O)N[C@@H](CCCNC(=N)N)C(=O)N[C@@H](C)C(=O)N[C@H]1CSSC[C@@H](C(=O)N[C@@H](C)C(=O)NCC(=O)N[C@@H](Cc2c[nH]cn2)C(=O)N[C@@H](CCC(=O)O)C(=O)N2CCC[C@H]2C(=O)NCC(=O)N2CCC[C@H]2C(=O)N[C@@H](CCC(=O)O)C(=O)NCC(=O)NCC(=O)NCC(=O)N[C@@H](CCCCN)C(N)=O)NC(=O)[C@H](Cc2c[nH]c3ccccc23)NC(=O)[C@H](C(C)C)NC(=O)[C@H](CC(C)C)NC(=O)[C@H](C)NC(=O)CNC(=O)[C@H](CO)NC(=O)[C@H](Cc2c[nH]c3ccccc23)NC(=O)[C@H](CC(=O)O)NC(=O)[C@H](CCCNC(=N)N)NC(=O)[C@H](CO)NC1=O [DX1140] (Ac-RRACSRDWSGALVWCAGHEPGPEGGGK-NH2; disulfide 4-15)	–	–	–	–	43	29	40	not fully soluble	0	20	–	–
CC(=O)NCC(=O)N[C@H]1CSSC[C@@H](C(=O)N[C@@H](C)C(=O)NCC(=O)N[C@@H](Cc2c[nH]cn2)C(=O)N[C@@H](CCC(=O)O)C(=O)N2CCC[C@H]2C(=O)NCC(=O)N2CCC[C@H]2C(=O)N[C@@H](CCC(=O)O)C(=O)NCC(=O)NCC(=O)NCC(=O)N[C@@H](CCCCN)C(N)=O)NC(=O)[C@H](Cc2c[nH]c3ccccc23)NC(=O)[C@H](C(C)C)NC(=O)[C@H](CC(C)C)NC(=O)[C@H](C)NC(=O)CNC(=O)[C@H](CO)NC(=O)[C@H](Cc2c[nH]c3ccccc23)NC(=O)[C@H](CC(=O)O)NC(=O)[C@H](CCCNC(=N)N)NC(=O)[C@H](CO)NC1=O [DX1146] (Ac-GCSRDWSGALVWCAGHEPGPEGGGK-NH2; disulfide 2-13)	–	–	–	–	83	80	73	not fully soluble	0	50	–	–
CC(=O)N[C@H]1CSSC[C@@H](C(=O)N[C@@H](C)C(=O)NCC(=O)N[C@@H](Cc2c[nH]cn2)C(=O)N[C@@H](CCC(=O)O)C(=O)N2CCC[C@H]2C(=O)NCC(=O)N2CCC[C@H]2C(=O)N[C@@H](CCC(=O)O)C(=O)NCC(=O)NCC(=O)NCC(=O)N[C@@H](CCCCN)C(N)=O)NC(=O)[C@H](Cc2c[nH]c3ccccc23)NC(=O)[C@H](C(C)C)NC(=O)[C@H](CC(C)C)NC(=O)[C@H](C)NC(=O)CNC(=O)[C@H](CO)NC(=O)[C@H](Cc2c[nH]c3ccccc23)NC(=O)[C@H](CC(=O)O)NC(=O)[C@H](CCCNC(=N)N)NC(=O)[C@H](CO)NC1=O [DX1147] (Ac-CSRDWSGALVWCAGHEPGPEGGGK-NH2; disulfide 1-12)	–	–	–	–	83	76	74	not fully soluble	0	47	almost identical to those of DX253	–
O=C(O)c1ccccc1-c1c2cc(F)c(=O)cc-2oc2cc(O)c(F)cc12 [Oregon Green]	–	–	–	–	–	–	–	–	–	–	–	4.7
